Reference: patent US20220232831A1, “NOVEL NON-CODING HETEROCYCLIC AMINO ACIDS (NCHAA) AND THEIR USE AS HERBICIDES” (Fortephest Ltd., priority 2019, published 2022)

How the values were obtained:
[1] = test system: Seeds of Lettuce R. (Super-Jericho); assay: Filter paper bioassay with lettuce seeds (germination and early plant development); type: in vivo; conditions: lettuce seeds on filter paper; 1, 0.1, 0.01, 0.001 mM; radicle and shoots assessed after 6 days
Experimental: Seeds of Lettuce R. (Super-Jericho, non-sterilized) were obtained from Ben Shahar Moshe Ltd., 99% purity.
Filter Paper Bioassays with Lettuce Seeds:
The protocol is following Bertin et al. 2009 and Movellan et al. 2014 with specified modifications as described below.
Seeds were placed on Whatman no. 1 filter paper (Whatman, Middlesex, U.K.) in Petri dishes (10 seeds per plate) supplemented with 2.0 ml of water (Control) or with a solution comprising 1 mM, 0.1 mM, 0.01 mM and 0.001 mM of test material. Petri dishes with seeds were placed in a tray at an angle of 45°. The trays were kept in dark for 48 hours and then transferred to the growth chamber (22° C., 0.045 mmol×m−2×s−1 photosynthetic photon flux density; 6/18 dark/light cycle) for additional 4 days. Each experiment was performed at least in two repeats. The development of radicle and shoots of experimental and control plants were visually assessed 6 days after the beginning of the test to determine Minimal Effective Concentration (MEC) of test material. In the context of the invention, MEC is defined as the lowest concentration level of a test material that caused deviation (absence of germination or malformation of radicle and shoots) from the plant's development in the Control group.

[2] = test system: Romaine lettuce (Lactuca sativa L.) plants; assay: Post-emergency herbicidal activity on Romaine lettuce plants; type: in vivo; conditions: Romaine lettuce at stage 2 to 3 leaves; compound in 0.1% Silwet, up to 0.5%; visual evaluation vs control plants
Experimental: The tests were performed on Romaine lettuce (Lactuca sativa L.) plants at the stage 2 to 3 leaves. The plants were grown on 300 well trays packed with soil, well dimensions 2×2×5 cm. Each compound was dissolved in 0.1% water solution of agronomically acceptable surfactant Silwet to final concentrations ranging from 0.0% (Control) to 0.5%. Two weeks after the treatment the herbicidal effects of the respective test material were visually evaluated by a comparison with the control plants. In addition, the aboveground part of the plant was neatly cut and weighed (wet weight). Each test was performed on 20 to 40 plants. The degree of growth inhibition and damage was evaluated according to the parameters in Table 2. Plant development at 7, 14, and 21 DAA (days after application) were evaluated on a scale of 0 to 100, in which score 0 represents dead plants and score 100 represents healthy plants according to plant vigor, height, and leaf color. Each test included 20 to 40 plants.

Compound	Minimal Effective Concentration (MEC) as activity score, seeds germination & early plants development [1]	post-emergency herbicidal activity (Activity Index: plant's development vs Control) [2]
NC(Cc1ccc[nH]c1=O)C(=O)O (stereo not shown) [Code 644]	Weak (More than 1 mM)	Weak (More than 75)
CC1=CC(CC(N)C(=O)O)=C(C)S1(=O)=O (stereo not shown) [Code 564]	Weak (More than 1 mM)	Weak (More than 75)
CCCCOC(=O)C(N)Cc1ccsc1 (stereo not shown) [Code 513]	Strong (0.1 mM)	Very Strong (From 15 to 25)
NC(Cc1cc(Br)sc1Br)C(=O)O (stereo not shown) [Code 552]	Moderate (1 mM)	Maximal (Less than 15)
Cl.NC(Cc1ccnc(C(F)(F)F)c1)C(=O)O (stereo not shown) [Code 679]	Strong (0.1 mM)	Strong (From 25 to 50)
NC(Cc1ccsc1Cl)C(=O)O (stereo not shown) [Code 516]	Maximal (0.01 mM and less)	Maximal (Less than 15)
NC(Cc1cccs1)C(=O)O (stereo not shown) [Code 501]	Maximal (0.01 mM and less)	Strong (From 25 to 50)
NC(Cc1cc(C(F)(F)F)cnc1Cl)C(=O)O (stereo not shown) [Code 663]	Strong (0.1 mM)	Moderate (From 50 to 75)
NC(Cc1ccc[n+](O)c1)C(=O)O (stereo not shown) [Code 668]	Weak (More than 1 mM)	Weak (More than 75)
N[C@@H](Cn1oc(=O)[nH]c1=O)C(=O)O [Code 557]	Weak (More than 1 mM)	Weak (More than 75)
Cc1cncc(CC(N)C(=O)O)c1 (stereo not shown) [Code 606]	Weak (More than 1 mM)	Weak (More than 75)
NC(Cc1nc(Cl)sc1Cl)C(=O)O (stereo not shown) [Code 527]	Moderate (1 mM)	Maximal (Less than 15)
COC(=O)C(N)Cc1cc(Br)nc(Br)c1 (stereo not shown) [Code 670]	Strong (0.1 mM)	Very Strong (From 15 to 25)
CCOC(=O)C(Cc1csc[n+]1C)NC(C)=O.[Cl-] (stereo not shown) [Code 576]	Moderate (1 mM)	Maximal (Less than 15)
Nc1nc(CC(N)C(=O)O)cs1 (stereo not shown) [Code 522]	Weak (More than 1 mM)	Weak (More than 75)
NC(Cc1c(F)cncc1F)C(=O)O (stereo not shown) [Code 630]	Moderate (1 mM)	Strong (From 25 to 50)
NC(Cc1ccncc1)C(=O)O (stereo not shown) [Code 602]	Strong (0.1 mM)	Moderate (From 50 to 75)
CN(C)c1ccncc1CC(N)C(=O)O (stereo not shown) [Code 643]	Weak (More than 1 mM)	Weak (More than 75)

Compound	Minimal Effective Concentration (MEC) as activity score, seeds germination & early plants development [1]	post-emergency herbicidal activity (Activity Index: plant's development vs Control) [2]
Nc1ncc(CC(N)C(=O)O)c(=O)[nH]1 (stereo not shown) [Code 664]	Moderate (1 mM)	Weak (More than 75)
NC(Cc1nnc[nH]1)C(=O)O (stereo not shown) [Code 709]	Moderate (1 mM)	Maximal (Less than 15)
C[n+]1cccc(CC(N)C(=O)O)c1 (stereo not shown) [Code 667]	Weak (More than 1 mM)	Weak (More than 75)
NC(CNS(=O)(=O)c1cscc1F)C(=O)O (stereo not shown) [Code 506]	Weak (More than 1 mM)	Weak (More than 75)
CCOC(=O)C(N)Cc1cnc(Br)c(Br)c1 (stereo not shown) [Code 661]	Maximal (0.01 mM and less)	Moderate (From 50 to 75)
NC(CC1=NCSC1)C(=O)O (stereo not shown) [Code 519]	Maximal (0.01 mM and less)	Moderate (From 50 to 75)
NC(Cc1cc(=O)[nH]c(S)n1)C(=O)O (stereo not shown) [Code 653]	Weak (More than 1 mM)	Weak (More than 75)
CCOC(=O)C(Cc1ccc(Br)nc1)NC(C)=O (stereo not shown) [Code 671]	Strong (0.1 mM)	Weak (More than 75)
CCOC(=O)C(N)Cc1ccsc1 (stereo not shown) [Code 547]	Maximal (0.01 mM and less)	Very Strong (From 15 to 25)
CCCOCCOC(=O)C(N)CNS(=O)(=O)c1cc(Cl)sc1Cl (stereo not shown) [Code 525]	Weak (More than 1 mM)	Weak (More than 75)
NC(Cc1ccc[nH]1)C(=O)O (stereo not shown) [Code 703]	Weak (More than 1 mM)	Weak (More than 75)
Nc1cncc(CC(N)C(=O)O)c1 (stereo not shown) [Code 610]	Weak (More than 1 mM)	Weak (More than 75)
CCOC(=O)C(Cc1cc(Cl)sc1Cl)NC(C)=O (stereo not shown) [Code 573]	Strong (0.1 mM)	Maximal (Less than 15)
NC(Cc1cocn1)C(=O)O (stereo not shown) [Code 542]	Weak (More than 1 mM)	Weak (More than 75)
CCOCCOCCOC(=O)C(Cc1cc(Cl)sc1Cl)NC(C)=O (stereo not shown) [Code 577]	Moderate (1 mM)	Strong (From 25 to 50)
NC(Cc1cncs1)C(=O)O (stereo not shown) [Code 520]	Strong (0.1 mM)	Weak (More than 75)
COC(=O)C(N)Cc1ccnc(Br)c1 (stereo not shown) [Code 666]	Strong (0.1 mM)	Maximal (Less than 15)
